Laboratory results reported in patent US20190322676A1, “CERAMIDE GALACTOSYLTRANSFERASE INHIBITORS FOR THE TREATMENT OF DISEASE” (BioMarin Pharmaceutical Inc., priority 2016, published 2019).
Where a name gives a salt, the structure may show the parent alone.

Each compound was assayed against T1, human CGT (ceramide galactosyltransferase), CHO/CGT lysate (Homo sapiens, UniProt Q16880) (assay: CGT enzyme assay, RapidFire/MS/MS readout (Table 1 ranges with one asterisk *)). Details: RapidFire method (range with one asterisk *).
T1 construct: Full-length human CGT cDNA was cloned into the BamH1/Xho1 site of pcDNA3.1 (+); expressed in transfected cells; host or cells: Chinese hamster ovary (CHO) cells; lysate prepared with M-PER
T1 sequence (Q16880 21-541): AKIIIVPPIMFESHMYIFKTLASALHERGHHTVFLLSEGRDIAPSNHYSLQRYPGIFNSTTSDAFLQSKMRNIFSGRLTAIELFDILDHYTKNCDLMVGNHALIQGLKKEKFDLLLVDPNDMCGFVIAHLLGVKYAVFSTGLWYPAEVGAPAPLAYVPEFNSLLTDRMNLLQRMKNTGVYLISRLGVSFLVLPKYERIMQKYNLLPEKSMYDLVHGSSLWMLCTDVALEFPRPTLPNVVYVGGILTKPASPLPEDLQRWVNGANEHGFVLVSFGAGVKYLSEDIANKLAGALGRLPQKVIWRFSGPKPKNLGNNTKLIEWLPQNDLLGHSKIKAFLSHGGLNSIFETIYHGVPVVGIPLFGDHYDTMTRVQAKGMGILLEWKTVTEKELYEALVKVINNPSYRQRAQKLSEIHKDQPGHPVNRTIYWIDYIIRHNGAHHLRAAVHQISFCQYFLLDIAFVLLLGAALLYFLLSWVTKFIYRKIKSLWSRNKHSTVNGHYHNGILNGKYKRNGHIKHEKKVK
Assay type: biochemical
Description: Full-length human CGT cDNA was cloned into the BamH1/Xho1 site of pcDNA3.1 (+) mammalian expression vector (V90-20, Invitrogen, Carlsbad, Calif.) and the plasmid was transfected into Chinese hamster ovary (CHO) cells. Lysate was prepared using M-PER (Mammalian Protein Extraction Reagent, ThermoFisher Scientific, Grand Island, N.Y.) in the presence of a protease inhibitor cocktail (P8340, Sigma, Saint Louis, Mo.). Each 100 mm dish (100% confluent, approximately 1×10^7 cells) was lysed with 250 μL of M-PER containing protease inhibitors. Protein concentration was determined using a Pierce BCA protein assay kit (ThermoFisher Scientific). Four micrograms of CHO/CGT lysate was incubated with various concentrations of a compound (0.001 μM-50 μM) in 10 mM HEPES (pH 7.2) containing 35 μM dioleoylphosphatidylcholine, 5 mM MgCl2, 5 mM MnCl2, 1% BSA, 15 mM KCl, 1 mM EGTA, 8 mM CHAPS, 10 μM C6-NBD-dihydro-ceramide and 17.5 μM UDP-galactose in a final reaction volume of 20 μL at 37° C. for 1 hour. The final concentration of DMSO was 0.5% in both compound-treated and mock-treated samples. Tween 80 (0.01%) was optionally added to the reaction mixture to help solubilize the compounds. Each individual reaction was diluted with 80 μL of methanol:acetronitrile (1:3) containing 5 μM N-docdecanoyl-NBD-galactosylceramide (internal standard) to stop the reaction. 200 μL H2O:acetonitile (1:1) was added to precipitate the protein. After sufficient mixing, the plates were centrifuged at 2469 g for 38 minutes, 200 μL of supernatant was transferred to a LC/MS 96-deep well plate and a second spin was performed at 2469 g for 10 minutes. The final supernatant was injected in triplicate for RapidFire/MS/MS analysis.
Quantitative Analysis Using the RapidFire/MS/MS Method:
The quantitative analysis of C6-NBD-dihydro-ceramide and C6-NBD-dihydro-galactosylceramide was performed on a Rapid Fire 360 high-throughput mass spectrometry system (Agilent Technologies, Palo Alto, Calif.) coupled with a API4000^+ triple quadrupole mass spectrometer (Applied Biosystems, Concord, Ontario, Canada). RapidFire software packages, including RapidFire Control panel, RapidFire UI and RapidFire Integrator (Agilent Technologies), were used to control the RapidFire instrument and to process data. Analyst 1.6.2 software packages (Applied Biosystems) were used to control the MS system and acquire MS data. […] of sample was loaded on a micro-scale C4 solid-phase extraction (SPE) cartridge (Agilent Technologies) and salts were removed using water supplemented with 0.1% formic acid at the flow rate of 1.5 mL/min for 3 sec. C6-NBD-dihydro-ceramide and C6-NBD-dihydro-galactosylceramide were co-eluted into the mass spectrometer using acetonitrile containing 0.1% formic acid at the flow rate of 1.0 mL/min for 3 sec. The total cycle time of one injection was 8 secs. The MS/MS detection was performed in ESI negative mode. The mass transition of C6-NBD-dihydro-galactosylceramide was m/z 752.6→678.6 using a −40 V collision energy, the mass transition of C6-NBD-dihydro-ceramide was m/z 590.6→115.8 using a −40 V collision energy and the mass transition of N-docdecanoyl-NBD-galactosylceramide was m/z 820.9→746.3 using a −45 V collision energy.
The C6-NBD-dihydro-galactosylceramide reading was normalized first by dividing the peak area of C6-NBD-dihydro-galactosylceramide by the peak area of the internal standard, N-docdecanoyl-NBD-galactosylceramide. IC50 values (see Table 1, where data ranges with one asterix (*) correspond to analysis using the RapidFire/MS/MS method, and data ranges with two asterixes (**) correspond to analysis using the RapidFire/MS/MS method with 0.01% Tween added) were generated from sigmoidal dose-response curves (variable slope) with GraphPad Prism software (GraphPad Software, Inc., San Diego, Calif.) using the normalized peak areas of C6-NBD-dihydro-galactosylceramide or the percent inhibition of C6-NBD-dihydro-galactosylceramide accumulation relative to DMSO control. […]

Row | Compound | IC50
1 | NC1CC2CCC(C1)N2C(=O)[C@@H](NS(=O)(=O)c1ccc2cc(OC3CCCC3)ccc2c1)C(F)(F)c1ccc(I)cc1 (stereo partly drawn) [Compound 42-1, N-((2R)-3-(3-amino-8-azabicyclo[3.2.1]octan-8-yl)-1,1-difluoro-1-(4-iodophenyl)-3-oxopropan-2-yl)-6-(cyclopentyloxy)naphthalene-2-sulfonamide trifluoroacetate] | < 1 µM
2 | NC1CC2CCC(C1)N2C(=O)[C@H](NS(=O)(=O)c1ccc2cc(OC3CCCC3)ccc2c1)C(F)(F)c1ccc(I)cc1 (stereo partly drawn) [Compound 42-2, N-((2S)-3-(3-amino-8-azabicyclo[3.2.1]octan-8-yl)-1,1-difluoro-1-(4-iodophenyl)-3-oxopropan-2-yl)-6-(cyclopentyloxy) naphthalene-2-sulfonamide trifluoroacetate] | 1 to 10 µM
3 | NC1CCN(C(=O)[C@@H](NS(=O)(=O)c2ccc3cc(OC4CCCC4)ccc3c2)C(F)(F)c2ccc(-c3ccccc3)cc2)CC1 [Compound 43-1, (R)—N-(1-([1,1′-biphenyl]-4-yl)-3-(4-aminopiperidin-1-yl)-1,1-difluoro-3-oxopropan-2-yl)-6-(cyclopentyloxy)naphthalene-2-sulfonamide] | < 1 µM
4 | NC1CCN(C(=O)[C@H](NS(=O)(=O)c2ccc3cc(OC4CCCC4)ccc3c2)C(F)(F)c2ccc(-c3ccccc3)cc2)CC1 [Compound 43-2, (S)—N-(1-([1,1′-biphenyl]-4-yl)-3-(4-aminopiperidin-1-yl)-1,1-difluoro-3-oxopropan-2-yl)-6-(cyclopentyloxy)naphthalene-2-sulfonamide] | 1 to 10 µM
5 | CN([C@H](C(=O)N1CCC(N)CC1)C(F)(F)c1ccc(Br)cc1)S(=O)(=O)c1ccc2cc(OC3CCCC3)ccc2c1 [Compound 44-1, (R)—N-(3-(4-aminopiperidin-1-yl)-1-(4-bromophenyl)-1,1-difluoro-3-oxopropan-2-yl)-6-(cyclopentyloxy)-N-methylnaphthalene-2-sulfonamide] | < 1 µM
6 | CN([C@@H](C(=O)N1CCC(N)CC1)C(F)(F)c1ccc(Br)cc1)S(=O)(=O)c1ccc2cc(OC3CCCC3)ccc2c1 [Compound 44-2, (S)—N-(3-(4-aminopiperidin-1-yl)-1-(4-bromophenyl)-1,1-difluoro-3-oxopropan-2-yl)-6-(cyclopentyloxy)-N-methylnaphthalene-2-sulfonamide] | 1 to 10 µM
7 | COc1ccc(C(F)(F)[C@H](NS(=O)(=O)c2ccc3cc(OC4CCCC4)ccc3c2)C(=O)N2C3CCC2CC(N)C3)cc1 (stereo partly drawn) [Compound 45-1, N-((2R)-3-(3-amino-8-azabicyclo[3.2.1]octan-8-yl)-1,1-difluoro-1-(4-methoxyphenyl)-3-oxopropan-2-yl)-6-(cyclopentyloxy)naphthalene-2-sulfonamide] | 10 to 30 µM
8 | COc1ccc(C(F)(F)[C@@H](NS(=O)(=O)c2ccc3cc(OC4CCCC4)ccc3c2)C(=O)N2C3CCC2CC(N)C3)cc1 (stereo partly drawn) [Compound 45-2, N-((2S)-3-(3-amino-8-azabicyclo[3.2.1]octan-8-yl)-1,1-difluoro-1-(4-methoxyphenyl)-3-oxopropan-2-yl)-6-(cyclopentyloxy)naphthalene-2-sulfonamide] | 1 to 10 µM
9 | CC(C)Oc1ccc2cc(S(=O)(=O)N(C)[C@H](C(=O)N3C4CCC3CC(N)C4)C(F)(F)c3ccc(Br)cc3)ccc2c1 (stereo partly drawn) [Compound 46-1, N-((2R)-3-(3-amino-8-azabicyclo[3.2.1]octan-8-yl)-1-(4-bromophenyl)-1,1-difluoro-3-oxopropan-2-yl)-6-isopropoxy-N-methylnaphthalene-2-sulfonamide trifluoroacetate] | 1 to 10 µM
10 | CC(C)Oc1ccc2cc(S(=O)(=O)N(C)[C@@H](C(=O)N3C4CCC3CC(N)C4)C(F)(F)c3ccc(Br)cc3)ccc2c1 (stereo partly drawn) [Compound 46-2, N-((2S)-3-(3-amino-8-azabicyclo[3.2.1]octan-8-yl)-1-(4-bromophenyl)-1,1-difluoro-3-oxopropan-2-yl)-6-isopropoxy-N-methylnaphthalene-2-sulfonamide trifluoroacetate] | 30 to 100 µM
11 | NC1CC2CCC(C1)N2C(=O)[C@@H](NS(=O)(=O)c1ccc2cc(OC3CCC3)ccc2c1)C(F)(F)c1ccc(Br)cc1 (stereo partly drawn) [Compound 47-1, N-((2R)-3-(3-amino-8-azabicyclo[3.2.1]octan-8-yl)-1-(4-bromophenyl)-1,1-difluoro-3-oxopropan-2-yl)-6-cyclobutoxynaphthalene-2-sulfonamide] | 1 to 10 µM
12 | NC1CC2CCC(C1)N2C(=O)[C@H](NS(=O)(=O)c1ccc2cc(OC3CCC3)ccc2c1)C(F)(F)c1ccc(Br)cc1 (stereo partly drawn) [Compound 47-2, N-((2S)-3-(3-amino-8-azabicyclo[3.2.1]octan-8-yl)-1-(4-bromophenyl)-1,1-difluoro-3-oxopropan-2-yl)-6-cyclobutoxynaphthalene-2-sulfonamide] | 10 to 30 µM
13 | CN([C@H](C(=O)N1C2CCC1CC(N)C2)C(F)(F)c1ccc(-c2ccccc2)cc1)S(=O)(=O)c1ccc2cc(OC3CCCC3)ccc2c1 (stereo partly drawn) [Compound 49-1, N-((2R)-1-([1,1′-biphenyl]-4-yl)-3-(3-amino-8-azabicyclo[3.2.1]octan-8-yl)-1,1-difluoro-3-oxopropan-2-yl)-6-(cyclopentyloxy)-N-methylnaphthalene-2-sulfonamide] | 1 to 10 µM
14 | CN([C@@H](C(=O)N1C2CCC1CC(N)C2)C(F)(F)c1ccc(-c2ccccc2)cc1)S(=O)(=O)c1ccc2cc(OC3CCCC3)ccc2c1 (stereo partly drawn) [Compound 49-2, N-((2S)-1-([1,1′-biphenyl]-4-yl)-3-(3-amino-8-azabicyclo[3.2.1]octan-8-yl)-1,1-difluoro-3-oxopropan-2-yl)-6-(cyclopentyloxy)-N-methylnaphthalene-2-sulfonamide] | 10 to 30 µM
15 | NC1CC2CCC(C1)N2C(=O)[C@@H](NS(=O)(=O)c1ccc(OCC2CCCCC2)cc1)C(F)(F)c1ccc(-c2ccc(Cl)cc2)cc1 (stereo partly drawn) [Compound 50-1, N-((2R)-3-(3-amino-8-azabicyclo[3.2.1]octan-8-yl)-1-(4′-chloro-[1,1′-biphenyl]-4-yl)-1,1-difluoro-3-oxopropan-2-yl)-4-(cyclohexylmethoxy) benzenesulfonamide trifluoroacetate] | < 1 µM
16 | NC1CC2CCC(C1)N2C(=O)[C@H](NS(=O)(=O)c1ccc(OCC2CCCCC2)cc1)C(F)(F)c1ccc(-c2ccc(Cl)cc2)cc1 (stereo partly drawn) [Compound 50-2, N-((2S)-3-(3-amino-8-azabicyclo[3.2.1]octan-8-yl)-1-(4′-chloro-[1,1′-biphenyl]-4-yl)-1,1-difluoro-3-oxopropan-2-yl)-4-(cyclohexylmethoxy)benzenesulfonamide trifluoroacetate] | 10 to 30 µM
